Measurements taken from patent US20240025884A1 (Dong-A ST Co., Ltd., priority 2022, published 2024).

Each compound was assayed against GCN2 (Homo sapiens (Human), UniProt Q9P2K8) (assay: GCN2 Biochemical Assay (TR-FRET, GFP-eIF2S1 substrate phosphorylation)). Conditions: read-out: IC50 (GCN2 Inhibitory Activity).
Sequence of GCN2 (Q9P2K8 whole entry): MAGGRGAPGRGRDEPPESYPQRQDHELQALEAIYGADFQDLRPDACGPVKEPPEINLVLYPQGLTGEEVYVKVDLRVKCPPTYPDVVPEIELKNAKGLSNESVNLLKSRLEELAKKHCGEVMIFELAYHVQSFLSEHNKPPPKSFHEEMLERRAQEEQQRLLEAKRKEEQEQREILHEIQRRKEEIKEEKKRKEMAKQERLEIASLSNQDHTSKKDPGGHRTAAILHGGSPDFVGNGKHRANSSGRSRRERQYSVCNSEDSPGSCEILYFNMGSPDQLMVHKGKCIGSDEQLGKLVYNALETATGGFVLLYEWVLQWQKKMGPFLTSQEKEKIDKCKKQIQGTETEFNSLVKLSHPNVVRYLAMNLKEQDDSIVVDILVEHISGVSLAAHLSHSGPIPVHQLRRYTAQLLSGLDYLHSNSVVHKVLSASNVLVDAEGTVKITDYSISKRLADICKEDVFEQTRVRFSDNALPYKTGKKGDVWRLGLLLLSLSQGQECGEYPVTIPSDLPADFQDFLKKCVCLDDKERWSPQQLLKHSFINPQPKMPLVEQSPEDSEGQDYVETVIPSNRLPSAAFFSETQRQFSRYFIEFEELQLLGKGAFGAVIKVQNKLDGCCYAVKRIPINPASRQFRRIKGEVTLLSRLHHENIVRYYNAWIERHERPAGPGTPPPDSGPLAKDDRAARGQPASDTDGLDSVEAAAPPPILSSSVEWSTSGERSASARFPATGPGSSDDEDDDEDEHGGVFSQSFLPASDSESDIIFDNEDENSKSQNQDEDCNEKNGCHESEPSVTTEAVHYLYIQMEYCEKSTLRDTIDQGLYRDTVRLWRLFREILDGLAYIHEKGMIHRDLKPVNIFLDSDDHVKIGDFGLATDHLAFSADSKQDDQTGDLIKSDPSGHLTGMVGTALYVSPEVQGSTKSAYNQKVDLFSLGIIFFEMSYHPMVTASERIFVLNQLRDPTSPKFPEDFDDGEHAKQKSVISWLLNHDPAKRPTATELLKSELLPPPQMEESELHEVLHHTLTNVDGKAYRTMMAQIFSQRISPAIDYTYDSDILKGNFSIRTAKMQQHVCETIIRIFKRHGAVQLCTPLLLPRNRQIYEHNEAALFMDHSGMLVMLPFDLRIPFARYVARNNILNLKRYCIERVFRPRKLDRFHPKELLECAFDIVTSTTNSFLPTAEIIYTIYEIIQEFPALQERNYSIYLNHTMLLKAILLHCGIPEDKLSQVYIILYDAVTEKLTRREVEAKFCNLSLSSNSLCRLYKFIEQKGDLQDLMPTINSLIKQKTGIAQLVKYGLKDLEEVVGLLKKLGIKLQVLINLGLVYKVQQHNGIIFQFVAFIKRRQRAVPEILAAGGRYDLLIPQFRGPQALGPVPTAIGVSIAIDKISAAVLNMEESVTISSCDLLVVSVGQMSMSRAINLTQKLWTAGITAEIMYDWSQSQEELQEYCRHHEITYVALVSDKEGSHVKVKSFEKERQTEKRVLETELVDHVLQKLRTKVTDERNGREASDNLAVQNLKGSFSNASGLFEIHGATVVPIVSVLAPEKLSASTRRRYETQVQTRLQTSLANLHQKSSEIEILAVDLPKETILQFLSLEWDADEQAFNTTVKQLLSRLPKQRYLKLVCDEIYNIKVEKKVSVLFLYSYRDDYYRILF
How it was run: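 TR-FRET readout (Ex 340, Em 490/520 nm) after 2–3 h with Tb-labelled phospho-eIF2S1 antibody in stop mix, following a 70 min room-temperature kinase step. Reaction: in-house GCN2, GFP-eIF2S1, ATP, tRNA in Tris pH 7.5 (2× stocks 1.6 nM, 50 nM, 0.2 mM); compounds tested at 10 concentrations, with a phospho-substrate artifact counter-plate.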
`Cc1cnc(Nc2cc(C)n(C)n2)nc1-c1c[nH]c2c(N3Cc4c(NS(=O)(=O)c5ccccc5)cccc4C3=O)cccc12` [Example 341, N-(2-(3-(2-((1,5-dimethyl-1H-pyrazol-3-yl)amino)-5-methylpyrimidin-4-yl)-1H-indol-7-yl)-1-oxoisoindolin-4-yl)benzenesulfonamide] was tested, and the IC50 was under 10 nM. Work on `Cc1cnc(Nc2cc(C)n(C)n2)nc1-c1c[nH]c2c(N3Cc4c(NS(C)(=O)=O)cccc4C3=O)cccc12` [Example 342, N-(2-(3-(2-((1,5-dimethyl-1H-pyrazol-3-yl)amino)-5-methylpyrimidin-4-yl)-1H-indol-7-yl)-1-oxoisoindolin-4-yl)methanesulfonamide] yielded an IC50 of under 10 nM. With `Cc1ccc(S(=O)(=O)Nc2cccc3c2CN(c2cccc4c(-c5nc(Nc6cc(C)n(C)n6)ncc5C)c[nH]c24)C3=O)cc1` [Example 343, N-(2-(3-(2-((1,5-dimethyl-1H-pyrazol-3-yl)amino)-5-methylpyrimidin-4-yl)-1H-indol-7-yl)-1-oxoisoindolin-4-yl)-4-methylbenzenesulfonamide] the IC50 was 10 to 100 nM. In the case of `Cc1cnc(Nc2cc(C)n(C)n2)nc1-c1c[nH]c2c(N3Cc4c(NS(=O)(=O)C(C)C)cccc4C3=O)cccc12` [Example 344, N-(2-(3-(2-((1,5-dimethyl-1H-pyrazol-3-yl)amino)-5-methylpyrimidin-4-yl)-1H-indol-7-yl)-1-oxoisoindolin-4-yl)propane-2-sulfonamide], the IC50 is reported as under 10 nM. For `Cc1cc(S(=O)(=O)Nc2cccc3c2CN(c2cccc4c(-c5nc(Nc6cc(C)n(C)n6)ncc5C)c[nH]c24)C3=O)ccc1F` [Example 345, N-(2-(3-(2-((1,5-dimethyl-1H-pyrazol-3-yl)amino)-5-methylpyrimidin-4-yl)-1H-indol-7-yl)-1-oxoisoindolin-4-yl)-4-fluoro-3-methylbenzenesulfonamide], the IC50 was 10 to 100 nM. For `Cc1cnc(Nc2cc(C)n(C)n2)nc1-c1c[nH]c2c(N3Cc4cccc(Nc5ccccc5)c4C3=O)cccc12` [Example 346, 2-(3-(2-((1,5-dimethyl-1H-pyrazol-3-yl)amino)-5-methylpyrimidin-4-yl)-1H-indol-7-yl)-7-(phenylamino)isoindolin-1-one], the IC50 was 100 to 1000 nM. `Cc1cnc(Nc2cc(C)n(C)n2)nc1-c1c[nH]c2c(N3Cc4cccc(N5CCOCC5)c4C3=O)cccc12` [Example 347, 2-(3-(2-((1,5-dimethyl-1H-pyrazol-3-yl)amino)-5-methylpyrimidin-4-yl)-1H-indol-7-yl)-7-morpholinoisoindolin-1-one] showed an IC50 of 10 to 100 nM. `Cc1cnc(Nc2cc(C)n(C)n2)nc1-c1c[nH]c2c(N3Cc4cccc(N5CCN(C)CC5)c4C3=O)cccc12` [Example 348, 2-(3-(2-((1,5-dimethyl-1H-pyrazol-3-yl)amino)-5-methylpyrimidin-4-yl)-1H-indol-7-yl)-7-(4-methylpiperazin-1-yl)isoindolin-1-one] showed an IC50 of 10 to 100 nM. `Cc1cnc(Nc2cc(C)n(C)n2)nc1-c1c[nH]c2c(N3Cc4cccc(N(C)C)c4C3=O)cccc12` [Example 349, 2-(3-(2-((1,5-dimethyl-1H-pyrazol-3-yl)amino)-5-methylpyrimidin-4-yl)-1H-indol-7-yl)-7-(dimethylamino)isoindolin-1-one] was tested, and the IC50 was 10 to 100 nM. In the case of `Cc1cnc(Nc2cc(C)n(C)n2)nc1-c1c[nH]c2c(N3Cc4cccc(NCc5ccccc5)c4C3=O)cccc12` [Example 350, 7-(benzylamino)-2-(3-(2-((1,5-dimethyl-1H-pyrazol-3-yl)amino)-5-methylpyrimidin-4-yl)-1H-indol-7-yl)isoindolin-1-one], the IC50 is reported as 100 to 1000 nM. `Cc1cnc(Nc2cc(C)n(C)n2)nc1-c1c[nH]c2c(N3Cc4cccc(NCC5CC5)c4C3=O)cccc12` [Example 351, 7-((cyclopropylmethyl)amino)-2-(3-(2-((1,5-dimethyl-1H-pyrazol-3-yl)amino)-5-methylpyrimidin-4-yl)-1H-indol-7-yl)isoindolin-1-one] showed an IC50 of 100 to 1000 nM. `Cc1cnc(Nc2cc(C)n(C)n2)nc1-c1c[nH]c2c(N3Cc4c(cccc4N4CCOCC4)C3=O)cccc12` [Example 352, 2-(3-(2-((1,5-dimethyl-1H-pyrazol-3-yl)amino)-5-methylpyrimidin-4-yl)-1H-indol-7-yl)-4-morpholinoisoindolin-1-one] was tested, and the IC50 was under 10 nM. In the case of `Cc1cnc(Nc2cc(C)n(C)n2)nc1-c1c[nH]c2c(N3Cc4c(NCC5CC5)cccc4C3=O)cccc12` [Example 353, 4-((cyclopropylmethyl)amino)-2-(3-(2-((1,5-dimethyl-1H-pyrazol-3-yl)amino)-5-methylpyrimidin-4-yl)-1H-indol-7-yl)isoindolin-1-one], the IC50 is reported as 10 to 100 nM. `Cc1cnc(Nc2cc(C)n(C)n2)nc1-c1c[nH]c2c(N3Cc4c(NCc5ccccc5)cccc4C3=O)cccc12` [Example 354, 4-(benzylamino)-2-(3-(2-((1,5-dimethyl-1H-pyrazol-3-yl)amino)-5-methylpyrimidin-4-yl)-1H-indol-7-yl)isoindolin-1-one] was tested, and the IC50 was 10 to 100 nM. Work on `Cc1cnc(Nc2cc(C)n(C)n2)nc1-c1c[nH]c2c(N3Cc4ccc(C#Cc5ccccc5)cc4C3=O)cccc12` [Example 355] yielded an IC50 of over 1000 nM. With `Cc1cnc(Nc2cc(C)n(C)n2)nc1-c1c[nH]c2c(N3Cc4c(C#Cc5ccccc5)cccc4C3=O)cccc12` [Example 356, 2-(3-(2-((1,5-dimethyl-1H-pyrazol-3-yl)amino)-5-methylpyrimidin-4-yl)-1H-indol-7-yl)-4-(phenylethynyl)isoindolin-1-one] the IC50 was 100 to 1000 nM. Compound `Cc1cnc(Nc2cc(C)n(C)n2)nc1-c1c[nH]c2c(N3Cc4c(C#Cc5ccc(N)cc5)cccc4C3=O)cccc12` [Example 357, 4-((4-aminophenyl)ethynyl)-2-(3-(2-((1,5-dimethyl-1H-pyrazol-3-yl)amino)-5-methylpyrimidin-4-yl)-1H-indol-7-yl)isoindolin-1-one] has an IC50 of 10 to 100 nM. `Cc1cnc(Nc2cc(C)n(C)n2)nc1-c1c[nH]c2c(N3Cc4c(/C=C/C(N)=O)cccc4C3=O)cccc12` [Example 358, (E)-3-(2-(3-(2-((1,5-dimethyl-1H-pyrazol-3-yl)amino)-5-methylpyrimidin-4-yl)-1H-indol-7-yl)-1-oxoisoindolin-4-yl)acrylamide] was tested, and the IC50 was under 10 nM. In the case of `Cc1cnc(Nc2cc(C)n(C)n2)nc1-c1c[nH]c2c(N3Cc4c(/C=C/C(=O)N(C)C)ccc(F)c4C3=O)cccc12` [Example 359, (E)-3-(2-(3-(2-((1,5-dimethyl-1H-pyrazol-3-yl)amino)-5-methylpyrimidin-4-yl)-1H-indol-7-yl)-7-fluoro-1-oxoisoindolin-4-yl)-N,N-dimethylacrylamide], the IC50 is reported as 10 to 100 nM. `Cc1cnc(Nc2cc(C)n(C)n2)nc1-c1c[nH]c2c(N3Cc4c(/C=C/C(=O)N(C)C)cccc4C3=O)cccc12` [Example 360, (E)-3-(2-(3-(2-((1,5-dimethyl-1H-pyrazol-3-yl)amino)-5-methylpyrimidin-4-yl)-1H-indol-7-yl)-1-oxoisoindolin-4-yl)-N,N-dimethylacrylamide] showed an IC50 of under 10 nM. `C/C(=C\c1cccc2c1CN(c1cccc3c(-c4nc(Nc5cc(C)n(C)n5)ncc4C)c[nH]c13)C2=O)C(N)=O` [Example 361, (E)-3-(2-(3-(2-((1,5-dimethyl-1H-pyrazol-3-yl)amino)-5-methylpyrimidin-4-yl)-1H-indol-7-yl)-1-oxoisoindolin-4-yl)-2-methylacrylamide] was tested, and the IC50 was under 10 nM. With `CC(=O)/C=C/c1cccc2c1CN(c1cccc3c(-c4nc(Nc5cc(C)n(C)n5)ncc4C)c[nH]c13)C2=O` [Example 362, (E)-2-(3-(2-((1,5-dimethyl-1H-pyrazol-3-yl)amino)-5-methylpyrimidin-4-yl)-1H-indol-7-yl)-4-(3-oxobut-1-en-1-yl)isoindolin-1-one] the IC50 was under 10 nM. `CNC(=O)/C=C/c1cccc2c1CN(c1cccc3c(-c4nc(Nc5cc(C)n(C)n5)ncc4C)c[nH]c13)C2=O` [Example 363, (E)-3-(2-(3-(2-((1,5-dimethyl-1H-pyrazol-3-yl)amino)-5-methylpyrimidin-4-yl)-1H-indol-7-yl)-1-oxoisoindolin-4-yl)-N-methylacrylamide] was tested, and the IC50 was under 10 nM. `CCNC(=O)/C=C/c1cccc2c1CN(c1cccc3c(-c4nc(Nc5cc(C)n(C)n5)ncc4C)c[nH]c13)C2=O` [Example 364, (E)-3-(2-(3-(2-((1,5-dimethyl-1H-pyrazol-3-yl)amino)-5-methylpyrimidin-4-yl)-1H-indol-7-yl)-1-oxoisoindolin-4-yl)-N-ethylacrylamide] was tested, and the IC50 was under 10 nM. Compound `Cc1cnc(Nc2cc(C)n(C)n2)nc1-c1c[nH]c2c(N3Cc4c(/C=C/C(=O)NC5CC5)cccc4C3=O)cccc12` [Example 365, (E)-N-cyclopropyl-3-(2-(3-(2-((1,5-dimethyl-1H-pyrazol-3-yl)amino)-5-methylpyrimidin-4-yl)-1H-indol-7-yl)-1-oxoisoindolin-4-yl)acrylamide] has an IC50 of under 10 nM. For `Cc1cnc(Nc2cc(C)n(C)n2)nc1-c1c[nH]c2c(N3Cc4c(/C=C/C(=O)NN)cccc4C3=O)cccc12` [Example 366, (E)-3-(2-(3-(2-((1,5-dimethyl-1H-pyrazol-3-yl)amino)-5-methylpyrimidin-4-yl)-1H-indol-7-yl)-1-oxoisoindolin-4-yl)acrylohydrazide], the IC50 was under 10 nM. Work on `Cc1cnc(Nc2cc(C)n(C)n2)nc1-c1c[nH]c2c(N3Cc4c(/C=C/C(=O)O)cccc4C3=O)cccc12` [Example 367, (E)-3-(2-(3-(2-((1,5-dimethyl-1H-pyrazol-3-yl)amino)-5-methylpyrimidin-4-yl)-1H-indol-7-yl)-1-oxoisoindolin-4-yl)acrylic acid] yielded an IC50 of under 10 nM. Work on `CCN(CC)C(=O)/C=C/c1cccc2c1CN(c1cccc3c(-c4nc(Nc5cc(C)n(C)n5)ncc4C)c[nH]c13)C2=O` [Example 368, (E)-3-(2-(3-(2-((1,5-dimethyl-1H-pyrazol-3-yl)amino)-5-methylpyrimidin-4-yl)-1H-indol-7-yl)-1-oxoisoindolin-4-yl)-N,N-diethylacrylamide] yielded an IC50 of under 10 nM. With `CCCCN(CCCC)C(=O)/C=C/c1cccc2c1CN(c1cccc3c(-c4nc(Nc5cc(C)n(C)n5)ncc4C)c[nH]c13)C2=O` [Example 369, (E)-N,N-dibutyl-3-(2-(3-(2-((1,5-dimethyl-1H-pyrazol-3-yl)amino)-5-methylpyrimidin-4-yl)-1H-indol-7-yl)-1-oxoisoindolin-4-yl)acrylamide] the IC50 was 10 to 100 nM.
